Data: patent EP4745153A1, “GLP-1, GIP AND GCG RECEPTOR […] USE THEREOF” (Jiangsu Hengrui Pharmaceuticals Co., Ltd., priority 2023, dated 2025)
Read-outs that look alike come from different tables or passages of the source. Starred links: 1 amine or outer side, 2 acyl side, 3 side chain; linkers in the order of their positions; H or OH if unused. Non-standard residues stand in square brackets, D forms with d. Residues, ends and D or L forms follow the SMILES beside them. Groups on a side chain read outwards from the residue. ξ: configuration not given here. *: point of attachment. C20 diacid = O=C(O)CCCCCCCCCCCCCCCCCCC(=O)*; γGlu = O=C(O)[C@H](CCC(=O)[*:2])N[*:1]; αMeL = CC(C)C[C@](C)(N)C(=O)O; αMeK = C[C@](N)(CCCCN)C(=O)O; ξIva = CCC(C)(N)C(=O)O; AEEA = NCCOCCOCC(=O)O; Aib = CC(C)(N)C(=O)O

Key:
human GCGR = target: T1, human GCGR (Homo sapiens, UniProt P47871); test: cAMP HTRF agonist activity assay in CHO-K1 cells expressing GCGR; assay type: cell-based; for Activity against human GCGR (EC50 nM): 5% FBS, 0.1% Casein
T1 construct: expressed in transfected cells; host or cells: CHO-K1 clonal cell line
T1 sequence (P47871 26-477): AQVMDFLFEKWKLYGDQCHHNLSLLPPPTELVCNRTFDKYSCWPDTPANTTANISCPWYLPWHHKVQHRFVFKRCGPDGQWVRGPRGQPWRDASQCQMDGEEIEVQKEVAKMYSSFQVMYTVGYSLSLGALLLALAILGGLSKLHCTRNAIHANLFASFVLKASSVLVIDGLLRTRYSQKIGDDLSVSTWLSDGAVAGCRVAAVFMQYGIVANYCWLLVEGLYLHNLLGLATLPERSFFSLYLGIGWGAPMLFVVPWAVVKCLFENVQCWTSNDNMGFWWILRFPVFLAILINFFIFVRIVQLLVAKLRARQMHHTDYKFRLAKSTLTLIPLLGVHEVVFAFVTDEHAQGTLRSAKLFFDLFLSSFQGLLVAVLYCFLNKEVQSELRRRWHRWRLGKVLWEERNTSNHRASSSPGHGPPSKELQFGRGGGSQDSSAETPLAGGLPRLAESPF
Experimental: (§1) Functional activity was determined in CHO-K1 clonal cell lines expressing GIPR, GLP-1R, and GCGR. […] Each recipient cell (5000 cells/well) was added to an SV 96-well plate (Cisbio, 66PL96025) and incubated with the prepared polypeptide at 37°Cfor 30 min. The resulting increase in intracellular cAMP was quantitatively measured using the cAMP-GS dynamic HTRF assay kit (Cisbio, 62AM4PEJ). Briefly, the intracellular cAMP levels were determined by adding cAMP-d2 conjugate in cell lysis buffer, followed by the antibody anti-cAMP-Eu cryptate (also in cell lysis buffer).
(§2) Using the maximum response percentage vs. the added polypeptide concentration, the relative EC50 values were derived through nonlinear regression analysis and fitted to a four-parameter logarithmic equation. For specific data, refer to Tables 7-1 to 7-8 below. […]

human GIPR = target: T2, human GIPR (Homo sapiens, UniProt P48546); test: cAMP HTRF agonist activity assay in CHO-K1 cells expressing GIPR; assay type: cell-based; settings: read-out: Activity against human GIPR (EC50 nM); note: 5% FBS, 0.1% Casein
T2 construct: expressed in transfected cells; host or cells: CHO-K1 clonal cell line
T2 sequence (P48546 22-466): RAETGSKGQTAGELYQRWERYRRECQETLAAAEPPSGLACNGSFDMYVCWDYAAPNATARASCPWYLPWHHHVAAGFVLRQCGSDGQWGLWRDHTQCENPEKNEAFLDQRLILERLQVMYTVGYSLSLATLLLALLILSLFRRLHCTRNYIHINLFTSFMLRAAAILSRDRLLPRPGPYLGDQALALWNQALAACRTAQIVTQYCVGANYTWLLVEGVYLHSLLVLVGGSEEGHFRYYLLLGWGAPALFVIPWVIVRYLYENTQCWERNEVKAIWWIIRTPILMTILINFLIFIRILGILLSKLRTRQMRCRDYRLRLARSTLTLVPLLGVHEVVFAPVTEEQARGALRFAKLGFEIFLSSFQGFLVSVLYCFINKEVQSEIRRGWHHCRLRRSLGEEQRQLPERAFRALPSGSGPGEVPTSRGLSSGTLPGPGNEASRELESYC
Summary of the method: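 cAMP accumulation measured by competitive HTRF after 30 min incubation of polypeptides with 5000 receptor-expressing CHO-K1 cells/well at 37°C. Percent of maximal response versus concentration fitted to a four-parameter logistic to give relative EC50.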

[1] = Pharmacokinetics in mice after single intravenous injection; set-up: species or system C57 mice; settings: in vivo
Summary of the method: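 Plasma concentrations were measured by positive-mode ESI LC-MS/MRM, with verapamil as internal standard, at time points from 5 min to 72 h. Samples came from three male C57 mice per compound, aged 4-6 weeks, dosed once intravenously with 200 nmol/kg in 1×PBS; PK parameters were derived with PKSolver.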

human GLP-1R = target: T3, human GLP-1R (Homo sapiens, UniProt P43220); test: cAMP HTRF agonist activity assay in CHO-K1 cells expressing GLP-1R; assay type: cell-based; settings: read-out: Activity against human GLP-1R (EC50 nM); note: 5% FBS, 0.1% Casein
T3 construct: expressed in transfected cells; host or cells: CHO-K1 clonal cell line
T3 sequence (P43220 24-463): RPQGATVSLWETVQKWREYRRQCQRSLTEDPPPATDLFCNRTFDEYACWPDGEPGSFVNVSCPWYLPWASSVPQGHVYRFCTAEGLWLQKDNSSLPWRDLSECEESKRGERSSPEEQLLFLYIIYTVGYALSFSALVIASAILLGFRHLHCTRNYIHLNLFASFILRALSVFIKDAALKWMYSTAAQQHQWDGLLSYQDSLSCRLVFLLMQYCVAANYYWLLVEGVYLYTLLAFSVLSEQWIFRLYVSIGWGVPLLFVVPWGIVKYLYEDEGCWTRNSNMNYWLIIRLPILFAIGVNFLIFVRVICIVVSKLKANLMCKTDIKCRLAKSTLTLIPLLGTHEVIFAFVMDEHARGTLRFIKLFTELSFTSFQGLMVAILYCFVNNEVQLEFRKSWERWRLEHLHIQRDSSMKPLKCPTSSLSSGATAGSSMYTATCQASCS
Experimental: as §1, §2

[2] = mouse, male C57 mice, single intravenous dose 200 nmol/kg, plasma

CC[C@H](C)[C@H](NC(=O)[C@H](CO)NC(=O)[C@H](Cc1ccc(O)cc1)NC(=O)[C@H](CC(=O)O)NC(=O)[C@H](CO)NC(=O)[C@@H](NC(=O)[C@H](Cc1ccccc1)NC(=O)[C@@H](NC(=O)CNC(=O)[C@H](Cc1c[nH]cn1)NC(=O)C(C)(C)NC(=O)[C@@H](N)Cc1c[nH]cn1)[C@@H](C)O)[C@@H](C)O)C(=O)N[C@@H](CC(C)C)C(=O)N[C@@H](CC(C)C)C(=O)N[C@@H](CCC(=O)O)C(=O)N[C@@H](CCCCNC(=O)COCCOCCNC(=O)COCCOCCNC(=O)CC[C@H](NC(=O)CCCCCCCCCCCCCCCCCCC(=O)O)C(=O)O)C(=O)N[C@@H](CCCCN)C(=O)N[C@@H](C)C(=O)N[C@@H](C)C(=O)N[C@@H](CCC(N)=O)C(=O)N[C@@H](CCC(=O)O)C(=O)N[C@@H](Cc1ccccc1)C(=O)N[C@H](C(=O)N[C@@H](CCC(=O)O)C(=O)N[C@@H](Cc1c[nH]c2ccccc12)C(=O)N[C@@H](CC(C)C)C(=O)N[C@@H](CC(C)C)C(=O)N[C@@H](C)C(=O)N[C@H](CCC(=O)O)C(=O)NCC(=O)N1CCC[C@H]1C(=O)N[C@@H](CO)C(=O)N[C@@H](CO)C(=O)NCC(=O)N[C@@H](C)C(=O)N1CCC[C@H]1C(=O)N1CCC[C@H]1C(=O)N1CCC[C@H]1C(=O)N[C@@H](CO)C(N)=O)C(C)C [Compound 0151]
EC50 (human GCGR; read-out: Activity against human GCGR (EC50 nM)): 0.055 nM | EC50 (human GIPR): 0.004 nM

CC(C)C[C@H](NC(=O)[C@H](CC(C)C)NC(=O)[C@H](Cc1c[nH]c2ccccc12)NC(=O)[C@H](CCC(=O)O)NC(=O)[C@@H](NC(=O)[C@H](Cc1ccccc1)NC(=O)[C@H](CCC(=O)O)NC(=O)[C@H](CCC(N)=O)NC(=O)[C@H](C)NC(=O)[C@H](C)NC(=O)[C@H](CCCCN)NC(=O)[C@H](CCCCNC(=O)COCCOCCNC(=O)COCCOCCNC(=O)CC[C@H](NC(=O)CCCCCCCCCCCCCCCCCCC(=O)O)C(=O)O)NC(=O)[C@H](CCC(=O)O)NC(=O)[C@H](CC(C)C)NC(=O)[C@H](Cc1ccc(O)cc1)NC(=O)[C@](C)(CCCCN)NC(=O)[C@H](CO)NC(=O)[C@H](Cc1ccc(O)cc1)NC(=O)[C@H](CC(=O)O)NC(=O)[C@H](CO)NC(=O)[C@@H](NC(=O)[C@H](Cc1ccccc1)NC(=O)[C@@H](NC(=O)CNC(=O)[C@H](Cc1c[nH]cn1)NC(=O)C(C)(C)NC(=O)[C@@H](N)Cc1c[nH]cn1)[C@@H](C)O)[C@@H](C)O)C(C)C)C(=O)N[C@@H](C)C(=O)NCC(=O)NCC(=O)N1CCC[C@H]1C(=O)N[C@@H](CO)C(=O)N[C@@H](CO)C(=O)NCC(=O)N[C@@H](C)C(=O)N1CCC[C@H]1C(=O)N1CCC[C@H]1C(=O)N1CCC[C@H]1C(=O)N[C@@H](CO)C(N)=O [Compound 0104] (H-H[Aib]HGTFTSDYS[αMeK]YLEK([AEEA-AEEA-γGlu-C20 diacid])KAAQEFVEWLLAGGPSSGAPPPS-NH2)
EC50 (human GCGR): 0.037 nM | AUC(0-inf) [1, 2]: 30.9 µM·h | C0 [1, 2]: 4.22 µM | clearance ([1]; mouse, male C57 mice, single intravenous dose 200 nmol/kg, plasma, read-out: CLp): 0.108 mL/min/kg | half-life ([1]; mouse, male C57 mice, single intravenous dose 200 nmol/kg, plasma, read-out: T1/2 (converted)): 11.5 h

CC[C@H](C)[C@H](NC(=O)[C@H](CO)NC(=O)[C@H](Cc1ccc(O)cc1)NC(=O)[C@H](CC(=O)O)NC(=O)[C@H](CO)NC(=O)[C@@H](NC(=O)[C@H](Cc1ccccc1)NC(=O)[C@@H](NC(=O)CNC(=O)[C@H](Cc1c[nH]cn1)NC(=O)C(C)(C)NC(=O)[C@@H](N)Cc1c[nH]cn1)[C@@H](C)O)[C@@H](C)O)C(=O)N[C@@](C)(CC(C)C)C(=O)N[C@@H](CC(C)C)C(=O)N[C@@H](CCC(=O)O)C(=O)N[C@@H](CCCCNC(=O)COCCOCCNC(=O)COCCOCCNC(=O)CC[C@H](NC(=O)CCCCCCCCCCCCCCCCCCC(=O)O)C(=O)O)C(=O)N[C@@H](CCCCN)C(=O)N[C@@H](C)C(=O)N[C@@H](C)C(=O)NC(C)(CC)C(=O)N[C@@H](CCC(=O)O)C(=O)N[C@@H](Cc1ccccc1)C(=O)N[C@H](C(=O)N[C@@H](CCC(=O)O)C(=O)N[C@@H](Cc1c[nH]c2ccccc12)C(=O)N[C@@H](CC(C)C)C(=O)N[C@@H](CC(C)C)C(=O)N[C@@H](C)C(=O)NCC(=O)NCC(=O)N1CCC[C@H]1C(=O)N[C@@H](CO)C(=O)N[C@@H](CO)C(=O)NCC(=O)N[C@@H](C)C(=O)N1CCC[C@H]1C(=O)N1CCC[C@H]1C(=O)N1CCC[C@H]1C(=O)N[C@@H](CO)C(N)=O)C(C)C (stereo partly shown) [Compound 0137] (H-H[Aib]HGTFTSDYSI[αMeL]LEK([AEEA-AEEA-γGlu-C20 diacid])KAA[ξIva]EFVEWLLAGGPSSGAPPPS-NH2)
EC50 (human GIPR): 0.001 nM | clearance ([1]; male, C57, mouse, iv): 0.163 mL/min/kg | half-life ([1]; male, C57, mouse, iv): 8.8 h | EC50 (human GLP-1R): 0.013 nM

CC[C@H](C)[C@H](NC(=O)[C@](C)(CCCCN)NC(=O)[C@H](CO)NC(=O)[C@H](Cc1ccc(O)cc1)NC(=O)[C@H](CC(=O)O)NC(=O)[C@H](CO)NC(=O)[C@@H](NC(=O)[C@H](Cc1ccccc1)NC(=O)[C@@H](NC(=O)CNC(=O)[C@H](Cc1c[nH]cn1)NC(=O)C(C)(C)NC(=O)[C@@H](N)Cc1c[nH]cn1)[C@@H](C)O)[C@@H](C)O)C(=O)N[C@@H](CC(C)C)C(=O)N[C@@H](CCC(=O)O)C(=O)N[C@@H](CCCCNC(=O)COCCOCCNC(=O)COCCOCCNC(=O)CC[C@H](NC(=O)CCCCCCCCCCCCCCCCCCC(=O)O)C(=O)O)C(=O)N[C@@H](CCC(N)=O)C(=O)N[C@@H](C)C(=O)N[C@@H](C)C(=O)NC(C)(CC)C(=O)N[C@@H](CCC(=O)O)C(=O)N[C@@H](Cc1ccccc1)C(=O)N[C@H](C(=O)N[C@@H](CCC(=O)O)C(=O)N[C@@H](Cc1c[nH]c2ccccc12)C(=O)N[C@@H](CC(C)C)C(=O)N[C@@H](CC(C)C)C(=O)N[C@@H](C)C(=O)NCC(=O)NCC(=O)N1CCC[C@H]1C(=O)N[C@@H](CO)C(=O)N[C@@H](CO)C(=O)NCC(=O)N[C@@H](C)C(=O)N1CCC[C@H]1C(=O)N1CCC[C@H]1C(=O)N1CCC[C@H]1C(=O)N[C@@H](CO)C(N)=O)C(C)C (stereo partly shown) [Compound 0130] (H-H[Aib]HGTFTSDYS[αMeK]ILEK([AEEA-AEEA-γGlu-C20 diacid])QAA[ξIva]EFVEWLLAGGPSSGAPPPS-NH2)
EC50 (human GCGR): 0.03 nM

CCC(C)(NC(=O)[C@H](C)NC(=O)[C@H](C)NC(=O)[C@H](CCCCN)NC(=O)[C@H](CCCCNC(=O)COCCOCCNC(=O)COCCOCCNC(=O)CC[C@H](NC(=O)CCCCCCCCCCCCCCCCCCC(=O)O)C(=O)O)NC(=O)[C@H](CCC(=O)O)NC(=O)[C@H](CC(C)C)NC(=O)[C@H](CC(C)C)NC(=O)[C@](C)(CCCCN)NC(=O)[C@H](CO)NC(=O)[C@H](Cc1ccc(O)cc1)NC(=O)[C@H](CC(=O)O)NC(=O)[C@H](CO)NC(=O)[C@@H](NC(=O)[C@H](Cc1ccccc1)NC(=O)[C@@H](NC(=O)CNC(=O)[C@H](CCC(N)=O)NC(=O)C(C)(C)NC(=O)[C@@H](N)Cc1ccc(O)cc1)[C@@H](C)O)[C@@H](C)O)C(=O)N[C@@H](CCC(=O)O)C(=O)N[C@@H](Cc1ccccc1)C(=O)N[C@H](C(=O)N[C@@H](CCC(=O)O)C(=O)N[C@@H](Cc1c[nH]c2ccccc12)C(=O)N[C@@H](CC(C)C)C(=O)N[C@@H](CC(C)C)C(=O)N[C@@H](C)C(=O)NCC(=O)NCC(=O)N1CCC[C@H]1C(=O)N[C@@H](CO)C(=O)N[C@@H](CO)C(=O)NCC(=O)N[C@@H](C)C(=O)N1CCC[C@H]1C(=O)N1CCC[C@H]1C(=O)N1CCC[C@H]1C(=O)N[C@@H](CO)C(N)=O)C(C)C (stereo partly shown) [Compound 0127] (H-Y[Aib]QGTFTSDYS[αMeK]LLEK([AEEA-AEEA-γGlu-C20 diacid])KAA[ξIva]EFVEWLLAGGPSSGAPPPS-NH2)
EC50 (human GCGR): 0.037 nM
